Data as given in BigSolDB 2.1.

Question: For `O=C1NC23NC(=O)NC2(N1)C(=O)NC3=O` (stereo not given), which solubility (mole fraction) (in 1,4-dioxane, 273.15 K) is on record?
Answer: 0.000149

Question: And the solubility (mole fraction) (in 1,4-dioxane, 278.15 K)?
Answer: 0.000174

Question: What about the solubility (mole fraction) (in 1,4-dioxane, 283.15 K) of the same compound?
Answer: 0.000214

Question: What about the solubility (mole fraction) (in 1,4-dioxane, 288.15 K) of the same compound?
Answer: 0.000267

Question: And the solubility (mole fraction) (in 1,4-dioxane, 293.15 K)?
Answer: 0.000333

Question: What about the solubility (mole fraction) (in 1,4-dioxane, 298.15 K) of the same compound?
Answer: 0.000453

Question: What about the solubility (mole fraction) (in 1,4-dioxane, 303.15 K) of the same compound?
Answer: 0.000601

Question: What about the solubility (mole fraction) (in 1,4-dioxane, 308.15 K) of the same compound?
Answer: 0.000696

Question: What about the solubility (mole fraction) (in 1,4-dioxane, 313.15 K) of the same compound?
Answer: 0.000856

Question: And the solubility (mole fraction) (in 1,4-dioxane, 318.15 K)?
Answer: 0.00102

Question: And the solubility (mole fraction) (in THF, 273.15 K)?
Answer: 0.000553

Question: And the solubility (mole fraction) (in THF, 278.15 K)?
Answer: 0.000655

Question: And the solubility (mole fraction) (in THF, 283.15 K)?
Answer: 0.000783

Question: And the solubility (mole fraction) (in THF, 288.15 K)?
Answer: 0.000992

Question: And the solubility (mole fraction) (in THF, 293.15 K)?
Answer: 0.00121

Question: And the solubility (mole fraction) (in THF, 298.15 K)?
Answer: 0.00151

Question: What about the solubility (mole fraction) (in THF, 303.15 K) of the same compound?
Answer: 0.00192

Question: What about the solubility (mole fraction) (in THF, 308.15 K) of the same compound?
Answer: 0.00224

Question: And the solubility (mole fraction) (in THF, 313.15 K)?
Answer: 0.00274

Question: And the solubility (mole fraction) (in THF, 318.15 K)?
Answer: 0.00325

Question: And the solubility (mole fraction) (in acetone, 273.15 K)?
Answer: 5.58e-05

Question: What about the solubility (mole fraction) (in acetone, 278.15 K) of the same compound?
Answer: 6.73e-05

Question: And the solubility (mole fraction) (in acetone, 283.15 K)?
Answer: 7.84e-05

Question: What about the solubility (mole fraction) (in acetone, 288.15 K) of the same compound?
Answer: 9.4e-05

Question: And the solubility (mole fraction) (in acetone, 293.15 K)?
Answer: 0.000114

Question: What about the solubility (mole fraction) (in acetone, 298.15 K) of the same compound?
Answer: 0.000131

Question: What about the solubility (mole fraction) (in acetone, 303.15 K) of the same compound?
Answer: 0.000158

Question: And the solubility (mole fraction) (in acetone, 308.15 K)?
Answer: 0.00018

Question: And the solubility (mole fraction) (in acetone, 313.15 K)?
Answer: 0.000202

Question: And the solubility (mole fraction) (in acetone, 318.15 K)?
Answer: 0.000246

Question: And the solubility (mole fraction) (in acetonitrile, 273.15 K)?
Answer: 9e-06

Question: What about the solubility (mole fraction) (in acetonitrile, 278.15 K) of the same compound?
Answer: 1.15e-05

Question: And the solubility (mole fraction) (in acetonitrile, 283.15 K)?
Answer: 1.43e-05

Question: What about the solubility (mole fraction) (in acetonitrile, 288.15 K) of the same compound?
Answer: 1.72e-05

Question: What about the solubility (mole fraction) (in acetonitrile, 293.15 K) of the same compound?
Answer: 2.16e-05

Question: And the solubility (mole fraction) (in acetonitrile, 298.15 K)?
Answer: 2.75e-05

Question: And the solubility (mole fraction) (in acetonitrile, 303.15 K)?
Answer: 3.6e-05

Question: And the solubility (mole fraction) (in acetonitrile, 308.15 K)?
Answer: 4.4e-05

Question: And the solubility (mole fraction) (in acetonitrile, 313.15 K)?
Answer: 5.5e-05

Question: What about the solubility (mole fraction) (in acetonitrile, 318.15 K) of the same compound?
Answer: 6.79e-05

Question: And the solubility (mole fraction) (in ethanol, 273.15 K)?
Answer: 6.15e-05

Question: And the solubility (mole fraction) (in ethanol, 278.15 K)?
Answer: 7.48e-05

Question: What about the solubility (mole fraction) (in ethanol, 283.15 K) of the same compound?
Answer: 9.23e-05

Question: And the solubility (mole fraction) (in ethanol, 288.15 K)?
Answer: 0.000113

Question: And the solubility (mole fraction) (in ethanol, 293.15 K)?
Answer: 0.000136

Question: And the solubility (mole fraction) (in ethanol, 298.15 K)?
Answer: 0.00017

Question: And the solubility (mole fraction) (in ethanol, 303.15 K)?
Answer: 0.000214

Question: And the solubility (mole fraction) (in ethanol, 308.15 K)?
Answer: 0.000264

Question: What about the solubility (mole fraction) (in ethanol, 313.15 K) of the same compound?
Answer: 0.000322

Question: And the solubility (mole fraction) (in ethanol, 318.15 K)?
Answer: 0.000419

Question: And the solubility (mole fraction) (in ethyl acetate, 273.15 K)?
Answer: 2.59e-05

Question: What about the solubility (mole fraction) (in ethyl acetate, 278.15 K) of the same compound?
Answer: 3.38e-05

Question: What about the solubility (mole fraction) (in ethyl acetate, 283.15 K) of the same compound?
Answer: 4.59e-05

Question: And the solubility (mole fraction) (in ethyl acetate, 288.15 K)?
Answer: 6.9e-05

Question: What about the solubility (mole fraction) (in ethyl acetate, 293.15 K) of the same compound?
Answer: 9.2e-05

Question: And the solubility (mole fraction) (in ethyl acetate, 298.15 K)?
Answer: 0.000124

Question: What about the solubility (mole fraction) (in ethyl acetate, 303.15 K) of the same compound?
Answer: 0.000167

Question: What about the solubility (mole fraction) (in ethyl acetate, 308.15 K) of the same compound?
Answer: 0.000225

Question: And the solubility (mole fraction) (in ethyl acetate, 313.15 K)?
Answer: 0.000322

Question: What about the solubility (mole fraction) (in ethyl acetate, 318.15 K) of the same compound?
Answer: 0.000413

Question: And the solubility (mole fraction) (in ethylene glycol, 273.15 K)?
Answer: 0.00029

Question: What about the solubility (mole fraction) (in ethylene glycol, 278.15 K) of the same compound?
Answer: 0.000326

Question: And the solubility (mole fraction) (in ethylene glycol, 283.15 K)?
Answer: 0.00036

Question: What about the solubility (mole fraction) (in ethylene glycol, 288.15 K) of the same compound?
Answer: 0.000404

Question: And the solubility (mole fraction) (in ethylene glycol, 293.15 K)?
Answer: 0.000459

Question: And the solubility (mole fraction) (in ethylene glycol, 298.15 K)?
Answer: 0.000516

Question: What about the solubility (mole fraction) (in ethylene glycol, 303.15 K) of the same compound?
Answer: 0.000587

Question: And the solubility (mole fraction) (in ethylene glycol, 308.15 K)?
Answer: 0.000638

Question: What about the solubility (mole fraction) (in ethylene glycol, 313.15 K) of the same compound?
Answer: 0.00073

Question: What about the solubility (mole fraction) (in ethylene glycol, 318.15 K) of the same compound?
Answer: 0.000822

Question: And the solubility (mole fraction) (in isopropanol, 273.15 K)?
Answer: 0.000113

Question: And the solubility (mole fraction) (in isopropanol, 278.15 K)?
Answer: 0.000133

Question: What about the solubility (mole fraction) (in isopropanol, 283.15 K) of the same compound?
Answer: 0.000162

Question: And the solubility (mole fraction) (in isopropanol, 288.15 K)?
Answer: 0.000192

Question: What about the solubility (mole fraction) (in isopropanol, 293.15 K) of the same compound?
Answer: 0.000234

Question: What about the solubility (mole fraction) (in isopropanol, 298.15 K) of the same compound?
Answer: 0.000284

Question: And the solubility (mole fraction) (in isopropanol, 303.15 K)?
Answer: 0.000364

Question: What about the solubility (mole fraction) (in isopropanol, 308.15 K) of the same compound?
Answer: 0.000482

Question: And the solubility (mole fraction) (in isopropanol, 313.15 K)?
Answer: 0.000526

Question: And the solubility (mole fraction) (in isopropanol, 318.15 K)?
Answer: 0.000614

Question: And the solubility (mole fraction) (in methanol, 273.15 K)?
Answer: 0.00161

Question: What about the solubility (mole fraction) (in methanol, 278.15 K) of the same compound?
Answer: 0.00184

Question: And the solubility (mole fraction) (in methanol, 283.15 K)?
Answer: 0.00243

Question: What about the solubility (mole fraction) (in methanol, 288.15 K) of the same compound?
Answer: 0.00286

Question: What about the solubility (mole fraction) (in methanol, 293.15 K) of the same compound?
Answer: 0.00348

Question: What about the solubility (mole fraction) (in methanol, 298.15 K) of the same compound?
Answer: 0.00409

Question: And the solubility (mole fraction) (in methanol, 303.15 K)?
Answer: 0.0049

Question: And the solubility (mole fraction) (in methanol, 308.15 K)?
Answer: 0.00592

Question: And the solubility (mole fraction) (in methanol, 313.15 K)?
Answer: 0.00727

Question: And the solubility (mole fraction) (in methanol, 318.15 K)?
Answer: 0.00843

Question: And the solubility (mole fraction) (in n-propanol, 273.15 K)?
Answer: 2.56e-05

Question: And the solubility (mole fraction) (in n-propanol, 278.15 K)?
Answer: 3.13e-05

Question: And the solubility (mole fraction) (in n-propanol, 283.15 K)?
Answer: 3.83e-05

Question: And the solubility (mole fraction) (in n-propanol, 288.15 K)?
Answer: 4.65e-05

Question: And the solubility (mole fraction) (in n-propanol, 293.15 K)?
Answer: 6.12e-05

Question: And the solubility (mole fraction) (in n-propanol, 298.15 K)?
Answer: 8.12e-05

Question: And the solubility (mole fraction) (in n-propanol, 303.15 K)?
Answer: 0.000103

Question: What about the solubility (mole fraction) (in n-propanol, 308.15 K) of the same compound?
Answer: 0.000122

Question: And the solubility (mole fraction) (in n-propanol, 313.15 K)?
Answer: 0.000151

Question: And the solubility (mole fraction) (in n-propanol, 318.15 K)?
Answer: 0.00019

Question: What about the solubility (mole fraction) (in toluene, 273.15 K) of the same compound?
Answer: 3.2e-06

Question: And the solubility (mole fraction) (in toluene, 278.15 K)?
Answer: 4.3e-06

Question: What about the solubility (mole fraction) (in toluene, 283.15 K) of the same compound?
Answer: 5.4e-06

Question: And the solubility (mole fraction) (in toluene, 288.15 K)?
Answer: 6.1e-06

Question: What about the solubility (mole fraction) (in toluene, 293.15 K) of the same compound?
Answer: 8.4e-06

Question: And the solubility (mole fraction) (in toluene, 298.15 K)?
Answer: 1.05e-05

Question: What about the solubility (mole fraction) (in toluene, 303.15 K) of the same compound?
Answer: 1.28e-05

Question: What about the solubility (mole fraction) (in toluene, 308.15 K) of the same compound?
Answer: 1.5e-05

Question: And the solubility (mole fraction) (in toluene, 313.15 K)?
Answer: 1.95e-05

Question: And the solubility (mole fraction) (in toluene, 318.15 K)?
Answer: 2.6e-05

Question: What about the solubility (mole fraction) (in water, 273.15 K) of the same compound?
Answer: 5.92e-05

Question: What about the solubility (mole fraction) (in water, 278.15 K) of the same compound?
Answer: 7.18e-05

Question: What about the solubility (mole fraction) (in water, 283.15 K) of the same compound?
Answer: 9.34e-05

Question: And the solubility (mole fraction) (in water, 288.15 K)?
Answer: 0.000126

Question: What about the solubility (mole fraction) (in water, 293.15 K) of the same compound?
Answer: 0.000159

Question: What about the solubility (mole fraction) (in water, 298.15 K) of the same compound?
Answer: 0.000188

Question: And the solubility (mole fraction) (in water, 303.15 K)?
Answer: 0.000223

Question: What about the solubility (mole fraction) (in water, 308.15 K) of the same compound?
Answer: 0.00025

Question: And the solubility (mole fraction) (in water, 313.15 K)?
Answer: 0.000313

Question: What about the solubility (mole fraction) (in water, 318.15 K) of the same compound?
Answer: 0.000369
